Assay results from patent US11629155B2, “Small molecule antagonist compound TAC5 series having toll-like receptor 3/7/8/9 inhibitory function” (AJOU UNIVERSITY INDUSTRY-ACADEMIC COOPERATION FOUNDATION, priority 2018, dated 2023).

Key:
[1] = system: C57BL/6 mice, IMQ-induced psoriasis; experiment: IMQ-induced psoriasis mouse model; format: in vivo; settings: FIG. 5F
Experimental: The therapeutic efficacy of TAC5-a was evaluated in a psoriasis mouse model and a SLE mouse model. Psoriasis was induced in 6-7 week old C57BL/6 mice by topically applying 42 mg of IMQ cream (5%) to the shaved back skin of the mice for 6 consecutive days (FIG. 5A). TAC5-a was injected daily at doses of 50, 100 and 200 nmol/g and the effect thereof on severity was analyzed.
Histological analysis and immunochemical staining were performed on skin samples of mouse dorsal lesions. The sample was fixed with 4% paraformaldehyde solution, then embedded in paraffin and cut to 7 μm on a glass slide. The sections were stained with hematoxylin and eosin (H&E) and the thickness of the dermis and epidermis were measured. The thickness of skin was measured with a Leica DMi8 fluorescence microscope using a Leica LAS X Hardware Configurator (Leica Microsystems GmbH, Wetzlar, Germany). IMQ-mediated skin inflammation was evaluated by immunohistochemistry (IHC) using a primary antibody that recognizes CD68 (ab31630, 1:200 dilution) as a macrophage marker. […] The skin was stained with hematoxylin and eosin (H&E) in order to evaluate the thickness of the epidermis (yellow arrow) and dermis (green arrow) in IMQ-induced psoriasis mice and thereby to observe the histopathological changes of skin lesions in each group (FIG. 5G) Immunohistochemical analysis of skin lesions in each group was performed using a primary antibody that recognizes CD68.

[2] = system: RAW 264.7 cells; experiment: MTT assay, cytotoxicity in RAW 264.7 cells; settings: FIG. 4B
Experimental: RAW264.7 cells (ATCC, Manassas, Va., USA), which are mouse macrophages, were cultured in low-glucose DMEM (Thermo Fisher Scientific Inc.) supplemented with 10% FBS, 100 IU/ml penicillin and 100 μg/ml streptomycin in a culture system.
Cytotoxicity in RAW 264.7 cells was tested by treatment with these compounds at a concentration of 12.5 to 50 μM.

[3] = system: TLR7/8; experiment: TLR7/8-mediated IL-6 expression in THP-1 cells; format: cell-based, human; settings: FIG. 4C
Experimental: RAW264.7 cells (ATCC, Manassas, Va., USA), which are mouse macrophages, were cultured in low-glucose DMEM (Thermo Fisher Scientific Inc.) supplemented with 10% FBS, 100 IU/ml penicillin and 100 μg/ml streptomycin in a culture system. Human monocyte THP1 cells were cultured in RPMI 1640 (Thermo Fisher Scientific Inc.) supplemented with 10% FBS, 100 IU/ml penicillin and 100 μg/ml streptomycin and then differentiation thereof into macrophages was induced using 10 nM phorbol 12-myristate 13-acetate (PMA) (Sigma-Aldrich Co. LLC.) for 24 hours. CL075, R848, CpG-ODN and Poly(I:C) were purchased from InvivoGen (San Diego, Calif., USA), and LPS was purchased from Sigma-Aldrich Co. (St. Louis, Mo., USA).
Cytotoxicity in RAW 264.7 cells was tested by treatment with these compounds at a concentration of 12.5 to 50 μM. […] The inhibitory effect of TAC5-a on TLR-mediated signaling was confirmed by measuring TNF-α secretion through ELISA in THP1-derived macrophages. […] In addition, in order to evaluate the antagonistic effect of TAC5-a on endosomal TLR activation, cells were cultured along with this compound in the presence of R848 (TLR7/8) or CL075 (TLR7/8), imiquimod (IMQ; TLR7), TL8 (TLR8), poly(I:C) (TLR3) or CpG ODN (TLR9) (FIGS. 4E, 4F and 4G).

SMILES	thickness of the epidermis and the dermis (H&E) [1]	cytotoxicity at 50 μM [2]	TLR7/8-mediated IL-6 expression [3]
CN(Cc1cnc2nc(N)nc(N)c2n1)c1ccc(C(=O)N[C@@H](CCC(=O)O)C(=O)O)cc1 [MTX, methotrexate, reference compound]	therapeutic effects similar to those of the treatment group were observed		
c1ccc(COc2cccnc2Nc2ccccc2)cc1 [TAC5-c, 3-(benzyloxy)-N-phenylpyridin-2-amine]		slight cytotoxicity	inhibited
CCOCC(Oc1cccnc1N)c1ccccc1 (centres unmarked) [TAC5-d, 3-(2-ethoxy-1-phenylethoxy)pyridine-2-amine]			inhibited
NCCOCC(Oc1cccnc1N)c1ccccc1 (centres unmarked) [TAC5-e, 3-(2-(2-aminoethoxy)-1-phenylethoxy)pyridine-2-amine]			inhibited
